# Measured values from ChEMBL document CHEMBL1150180, “Studies on Cytotoxic Constituents in Pericarps of Mallotus japonicus, V. Three New Phloroglucinol Derivatives, Butyrylmallotochromanol, Isobutyrylmallotochromanol, and Mallotojaponol” (1990).
# System: KB
# Assay: Cytotoxicity against human KB cells
# Format: functional
# Details: read-out: ED50 (the source's name)
row,Compound,EC50
1,CCCC(=O)c1c(OC(C)=O)c(Cc2c(OC)c(C)c(OC(C)=O)c(C(C)=O)c2OC(C)=O)c(OC(C)=O)c2c1OC(C)(C)C(OC(C)=O)C2 (configuration not stated),2.8 µg/mL
2,COc1c(C)c(OC(C)=O)c(C(C)=O)c(OC(C)=O)c1Cc1c(OC(C)=O)c2c(c(C(=O)C(C)C)c1OC(C)=O)OC(C)(C)C(OC(C)=O)C2 (configuration not stated),4.5 µg/mL
3,COc1c(C)c(OC(C)=O)c(C(C)=O)c(OC(C)=O)c1Cc1c(OC(C)=O)c(CC(OC(C)=O)C(C)(C)OC(C)=O)c(OC(C)=O)c(C(C)=O)c1OC(C)=O (configuration not stated),22.5 µg/mL
4,CCCC(=O)c1c(O)c(Cc2c(O)c(C(C)=O)c(O)c(C)c2OC)c(O)c2c1OC(C)(C)C(O)C2 (configuration not stated) [BUTYRYLMALLOTOCHROMANOL],13.5 µg/mL
5,COc1c(C)c(O)c(C(C)=O)c(O)c1Cc1c(O)c2c(c(C(=O)C(C)C)c1O)OC(C)(C)C(O)C2 (configuration not stated) [ISOBUTYRYLMALLOTOCHROMANOL],14.6 µg/mL
6,COc1c(C)c(O)c(C(C)=O)c(O)c1Cc1c(O)c2c(c(C(C)=O)c1O)OC(C)(C)C(O)C2 (configuration not stated) [MALLOTOCHROMANOL],21 µg/mL
7,COc1c(C)c(O)c(C(C)=O)c(O)c1Cc1c(O)c(CC(O)C(C)(C)O)c(O)c(C(C)=O)c1O (configuration not stated) [MALLOTOJAPONOL],22 µg/mL
